# Results: US9862690B2, “Treatment of pulmonary and other conditions” (University of Pittsburgh—of the Commonwealth System of …, priority 2013, dated 2018)
# Assays:
# [1] = system: LPS-induced acute lung injury in mice; test: LPS-induced acute lung injury model; type: in vivo; settings: 25 mg/kg nebulized 30 min after LPS
# Experimental: Induction of ALI by intratracheal injection of LPS (50 μg) was followed 30 min later by nebulization of PB141 (25 mg/kg) or vehicle (saline) and delivery to cage air via a micropump nebulizer. After a further 5.5 h, BAL fluid, plasma, and lung samples were obtained. (A) Total cell and (B) neutrophil number in BAL fluid; myeloperoxidase activity in (C) lung tissue and (D) BAL fluid; (E) microscopic examination following staining of BAL fluid; (F) H2O2 production; (G) nitrate concentration, and (H) malonyldialdehyde/protein ratio in lung. Plasma levels of (I) MIP-2, (J) IL-6, (K) TNF-α, and (L) KC. Data are representative of one of two independent experiments with n=5-8 mice per group; *** p<0.001.
# Induction of ALI by intratracheal injection of LPS (50 μg) was followed 30 min later by nebulization of PB141 (25 mg/kg) or vehicle (saline) and delivery to cage air via a micropump nebulizer. After a further 5.5 h, BAL fluid and lung samples were obtained. (A) Protein concentration in BAL fluid. (B) Ratio of lung wet:dry weight. (C) Histological examination of the lung following H&E staining. Data are representative of one of two independent experiments with n=5-8 mice per group; *** p<0.001.
# Induction of ALI by intratracheal injection of LPS (50 μg) was followed 30 min later by nebulization of PB141 (25 mg/kg) or vehicle (saline) and delivery to cage air via a micropump nebulizer. After another 5.5 h lungs were excised and DNA-binding activity of the transcription factor Nrf2 was determined. Data is representative of one of two independent experiments with n=4-6 mice per group; *** p<0.001.
# Acute lung injury was induced by intratracheal injection of endotoxin (lipopolysaccharide; LPS) prepared from Escherichia coli 0111:B6 (Sigma-Aldrich; St. Louis, Mo.) into anesthetized mice. In other experiments, systemic sepsis was induced by intraperitoneal injection of endotoxin. Thirty minutes later PB141 (25 mg/kg) or vehicle (saline) was delivered to mice for 30 minutes via a micropump nebulizer (Buxco Research Systems, Wilmington, N.C.) fitted at the chamber inlet. Extent of lung injury after 5.5 h and systemic sepsis after 12 h were assessed by measuring lung tissue myeloperoxidase activity, polymorphonuclear neutrophil (PMN) count in bronchoalveolar lavage fluid, lung vascular permeability, pulmonary edema, and cytokine generation. Lung histology sections were assessed microscopically for evidence of inflammation and injury following hematoxylin and eosin (H&E) staining.
# p65 subunit of NF-κB = target: T1, p65 subunit of NF-κB (Mus musculus, UniProt Q04207); test: LPS-induced lung NF-κB p65 DNA-binding activity after nebulized delivery; type: in vivo, mice; settings: i.t. LPS; different concentrations nebulized 30 min later for 30 min
# T1 construct: Following sacrifice, nuclear proteins were isolated from lungs; from tissue; host or cells: mouse lung (nuclear proteins)
# Experimental: PB141 was delivered to mice by nebulization at doses of 25 or 250 mg/kg for up to 30 days. (A) Lungs were excised, sectioned, and examined histologically for evidence of inflammation or injury. (B) Potential kidney and liver injury were assessed by serum levels of creatinine, AST, and ALT. […] Acute lung injury was induced in mice by intratracheal administration of LPS. Thirty min later PBS or varying concentrations of PB141 were delivered into cage air by nebulization. Following sacrifice, nuclear proteins were isolated from lungs and used to determine DNA-binding activity of the p65 subunit of the pro-inflammatory transcription factor NF-κB.
# In other experiments, acute lung injury was induced by intratracheal (i.t.) injection of endotoxin [lipopolysaccharide (LPS)] prepared from Escherichia coli O111:B6 (Sigma-Aldrich; St. Louis, Mo.). Thirty minutes later different concentrations of PB141 in isotonic saline were nebulized and delivered into cage air for 30 min using a micropump nebulizer (Buxco Research Systems, Wilmington, N.C.) fitted at the chamber inlet and flowing at 10 L of air/min. PBS was similarly delivered as a control. Nuclear proteins were prepared from lung samples and their concentrations were determined and used to quantify DNA-binding activity of the p65 subunit of the pro-inflammatory transcription factor NF-κB.
# BEAS-2B cells = type: cell-based
# Experimental: To evaluate cell viability, apoptosis, and cytotoxicity, the Apo Tox-Glo Triplex assay was used according to the manufacturer's instructions (Promega, Madison, Wis.). Briefly, the BEAS-2B cells were plated at 2×10^4 cells/well in 100 μl medium in an opaque walled, clear-bottomed, 96-well plate. After 24 hr culture, they were treated for a further indicated time with different concentrations of PB141 or PB157. At the end of the culture period, 20 μl viability/cytotoxicity reagent was added to each well, mixed by orbital shaking (300 r.p.m. for 30 s) and incubated for 30 min at 37° C. Fluorescence was then measured with excitation at 400 nm and emission at 505 nm to assess cell viability, and 485 nm excitation and 520 nm emission to assess cytotoxicity; both were quantified as relative fluorescence units (RFU). Then, 100 μl Caspase-Glo 3/7 reagent was added to each well, mixed by orbital shaking (300 r.p.m. for 30 s) and incubated for 30 min at room temperature. Luminescence was measured to assess caspase activation as a marker of apoptosis and quantified as relative luminescence units. Results for PB141 and PB157 were similar.
# T1 sequence (Q04207 whole entry): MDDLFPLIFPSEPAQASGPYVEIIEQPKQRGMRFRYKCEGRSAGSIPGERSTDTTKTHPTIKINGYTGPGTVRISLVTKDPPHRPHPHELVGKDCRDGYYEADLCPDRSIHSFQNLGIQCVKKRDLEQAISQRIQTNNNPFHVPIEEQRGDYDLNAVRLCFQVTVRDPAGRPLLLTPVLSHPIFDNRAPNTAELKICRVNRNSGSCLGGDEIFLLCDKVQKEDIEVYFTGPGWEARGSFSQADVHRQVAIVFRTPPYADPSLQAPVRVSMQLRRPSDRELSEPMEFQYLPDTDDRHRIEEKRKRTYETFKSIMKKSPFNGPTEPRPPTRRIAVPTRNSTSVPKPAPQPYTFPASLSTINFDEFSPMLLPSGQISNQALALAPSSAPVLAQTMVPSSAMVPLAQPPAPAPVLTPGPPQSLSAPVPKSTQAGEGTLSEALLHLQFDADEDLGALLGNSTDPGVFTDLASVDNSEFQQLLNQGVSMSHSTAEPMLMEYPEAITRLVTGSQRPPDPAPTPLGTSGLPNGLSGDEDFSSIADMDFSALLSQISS
structure (smiles),measurement,setting,value
CC(=O)N[C@@H](CSC(CC(=O)CC(SC[C@H](NC(C)=O)C(=O)O)c1cnccn1)c1cnccn1)C(=O)O (some centres unmarked) [PB141],"Cytokine generation (plasma MIP-2, IL-6, TNF-α, KC)",[1]; 5.5 h,reduced
same,Edema (lung wet:dry weight),[1]; 5.5 h,reduced
same,Lung Nrf2 DNA-binding activity after LPS,[1]; 5.5 h,reverses the LPS-induced decrease
same,Lung myeloperoxidase activity,[1]; 5.5 h,decreased
same,"Oxidant stress (H2O2, nitrate, malonyldialdehyde)",[1]; 5.5 h,reduced
same,PMN count in BAL fluid,[1]; 5.5 h,decreased
same,PMN infiltration into the alveolar space,[1]; 5.5 h,effectively prevented
same,Lung injury seen histologically,[1]; H&E,Decreased lung injury
same,LPS-induced upregulation of NF-κB in lung,p65 subunit of NF-κB,inhibited the LPS-induced upregulation of NF-κB in a concentration-dependent manner
same,Cytotoxicity,BEAS-2B cells,without exhibiting cytotoxicity
same,Apoptosis (caspase 3/7 activation),"BEAS-2B cells; different concentrations, data not shown",induced apoptosis
